The values that follow come from US11541055B2, “Inhibitors of human immunodeficiency virus replication” (ViiV Healthcare UK (No. 5) LIMITED, priority 2018, dated 2023).

As usually defined, the CC50 is the concentration that lowers cell viability or growth by half. Higher therefore signals better tolerance by the cells. By EC50 is commonly meant the concentration giving half of the maximal effect.

Data set [1] can be described thus: Compound cytotoxicity, XTT-based colorimetric assay. The conditions noted are these: human; uninfected MT2 cells, day 4, XTT. The format is cell-based. An outline of the steps:
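Run under the antiviral-assay protocol but without virus. Viability was read on day 4 and CC50 values were derived from the readout.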

In data set [2] the test system is recombinant NL4-3 virus (Renilla luciferase) in MT-2 cells. Description: HIV cell culture assay (antiviral activity, luciferase readout). The format is cell-based. The note with it: Renilla, NL43. In outline:
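MT-2 cells were infected with recombinant NL4-3 virus carrying Renilla luciferase in place of part of nef. Cells were cultured 4–5 days with serially diluted compound, and luciferase was measured with a live-cell substrate. EC50 was calculated from the median effect equation.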

`Cc1ccc(-c2ccc3c(=O)n(-c4ccc(Cl)c5c(NS(C)(=O)=O)nn(CC(F)F)c45)c([C@H](Cc4cc(F)cc(F)c4)NC(=O)Cn4nc(C(F)F)c5c4C(F)(F)[C@@H]4C[C@H]54)nc3c2)nn1` (atropisomer, axis not shown) [Example 134, N-[(1S)-1-{3-[4-chloro-1-(2,2-difluoroethyl)-3-methanesulfonamido-1H-indazol-7-yl]-7-(6-methylpyridazin-3-yl)-4-oxo-3,4-dihydroquinazolin-2-yl}-2-(3,5-difluorophenyl)ethyl]-2-[(2S,4R)-9-(difluoromethyl)-5,5-difluoro-7,8-diazatricyclo[4.3.0.0^2,^4]nona-1(6),8-dien-7-yl]acetamide]: the CC50 at 4 days in data set [1] was above 500 nM. Further, in data set [2], the EC50 worked out at 0.032 nM.

`CS(=O)(=O)Nc1nn(CC(F)F)c2c(-n3c([C@H](Cc4cc(F)cc(F)c4)NC(=O)Cn4nc(C(F)F)c5c4C(F)(F)[C@@H]4C[C@H]54)nc4cc(-c5cccnn5)ccc4c3=O)ccc(Cl)c12` (atropisomer, axis not shown) [Example 135, N-[(1S)-1-{3-[4-chloro-1-(2,2-difluoroethyl)-3-methanesulfonamido-1H-indazol-7-yl]-4-oxo-7-(pyridazin-3-yl)-3,4-dihydroquinazolin-2-yl}-2-(3,5-difluorophenyl)ethyl]-2-[(2S,4R)-9-(difluoromethyl)-5,5-difluoro-7,8-diazatricyclo[4.3.0.0^2,^4]nona-1(6),8-dien-7-yl]acetamide] showed a CC50 at 4 days in data set [1] above 500 nM. Further, the EC50 in data set [2] was 0.054 nM.

`CS(=O)(=O)Nc1nn(CC(F)F)c2c(-n3c([C@H](Cc4cc(F)cc(F)c4)NC(=O)Cn4nc(C(F)F)c5c4C(F)(F)[C@@H]4C[C@H]54)nc4cc(-c5ncccc5S(C)(=O)=O)ccc4c3=O)ccc(Cl)c12` (atropisomer, axis not shown) [Example 136, N-[(1S)-1-{3-[4-chloro-1-(2,2-difluoroethyl)-3-methanesulfonamido-1H-indazol-7-yl]-7-(3-methanesulfonylpyridin-2-yl)-4-oxo-3,4-dihydroquinazolin-2-yl}-2-(3,5-difluorophenyl)ethyl]-2-[(2S,4R)-9-(difluoromethyl)-5,5-difluoro-7,8-diazatricyclo[4.3.0.0^2,^4]nona-1(6),8-dien-7-yl]acetamide] registered a CC50 at 4 days in data set [1] above 500 nM. Moreover, the EC50 in data set [2] came to 0.046 nM.

In data set [1], `Cc1cc(C)nc(-c2ccc3c(=O)n(-c4ccc(Cl)c5c(NS(C)(=O)=O)nn(CC(F)F)c45)c([C@H](Cc4cc(F)cc(F)c4)NC(=O)Cn4nc(C(F)F)c5c4C(F)(F)[C@@H]4C[C@H]54)nc3c2)c1` (atropisomer, axis not shown) [Example 137, N-[(1S)-1-{3-[4-chloro-1-(2,2-difluoroethyl)-3-methanesulfonamido-1H-indazol-7-yl]-7-(4,6-dimethylpyridin-2-yl)-4-oxo-3,4-dihydroquinazolin-2-yl}-2-(3,5-difluorophenyl)ethyl]-2-[(2S,4R)-9-(difluoromethyl)-5,5-difluoro-7,8-diazatricyclo[4.3.0.0^2,^4]nona-1(6),8-dien-7-yl]acetamide] yielded a CC50 at 4 days above 500 nM. Also, the half-maximal effective concentration (EC50) in data set [2] worked out at 0.2 nM.

Compound `CCc1cc(-c2ccc3c(=O)n(-c4ccc(C)c5c(NS(C)(=O)=O)nn(C)c45)c([C@H](Cc4cc(F)cc(F)c4)NC(=O)Cn4nc(C(F)F)c5c4C(F)(F)[C@@H]4C[C@H]54)nc3c2)nc(C)n1` (atropisomer, axis not shown) [Example 139, 2-[(2S,4R)-9-(difluoromethyl)-5,5-difluoro-7,8-diazatricyclo[4.3.0.0^2,^4]nona-1(6),8-dien-7-yl]-N-[(1S)-2-(3,5-difluorophenyl)-1-[7-(6-ethy1-2-methylpyrimidin-4-yl)-3-(3-methanesulfonamido-1,4-dimethyl-1H-indazol-7-yl)-4-oxo-3,4-dihydroquinazolin-2-yl]ethyl]acetamide] came in with a CC50 at 4 days in data set [1] above 500 nM. Moreover, the EC50 in data set [2] amounted to 0.13 nM.

In data set [1], `Cc1ncc(F)c(-c2ccc3c(=O)n(-c4ccc(C)c5c(NS(C)(=O)=O)nn(C)c45)c([C@H](Cc4cc(F)cc(F)c4)NC(=O)Cn4nc(C(F)F)c5c4C(F)(F)[C@@H]4C[C@H]54)nc3c2)n1` (atropisomer, axis not shown) [Example 140, 2-[(2S,4R)-9-(difluoromethyl)-5,5-difluoro-7,8-diazatricyclo[4.3.0.0^2,^4]nona-1(6),8-dien-7-yl]-N-[(1S)-2-(3,5-difluorophenyl)-1-[7-(5-fluoro-2-methylpyrimidin-4-yl)-3-(3-methanesulfonamido-1,4-dimethyl-1H-indazol-7-yl)-4-oxo-3,4-dihydroquinazolin-2-yl]ethyl]acetamide] gave a CC50 at 4 days above 500 nM. The EC50 in data set [2] was 0.097 nM.

On to `Cc1ccc(-n2c([C@H](Cc3cc(F)cc(F)c3)NC(=O)Cn3nc(C(F)F)c4c3C(F)(F)[C@@H]3C[C@H]43)nc3cc(-c4cccnn4)ccc3c2=O)c2c1c(NS(C)(=O)=O)nn2C` (atropisomer, axis not shown) [Example 141, 2-[(2S,4R)-9-(difluoromethyl)-5,5-difluoro-7,8-diazatricyclo[4.3.0.0^2,^4]nona-1(6),8-dien-7-yl]-N-[(1S)-2-(3,5-difluorophenyl)-1-[3-(3-methanesulfonamido-1,4-dimethyl-1H-indazol-7-yl)-4-oxo-7-(pyridazin-3-yl)-3,4-dihydroquinazolin-2-yl]ethyl]acetamide], for which, in data set [1], the CC50 at 4 days was above 500 nM. The EC50 in data set [2] amounted to 0.13 nM.

With `Cc1ccc(-n2c([C@H](Cc3cc(F)cc(F)c3)NC(=O)Cn3nc(C(F)F)c4c3C(F)(F)[C@@H]3C[C@H]43)nc3cc(-c4ccccc4S(=O)(=O)C(C)(C)C)ccc3c2=O)c2c1c(NS(=O)(=O)C1CC1)nn2CC(F)F` (atropisomer, axis not shown) [Example 142, N-[(1S)-1-{3-[3-cyclopropanesulfonamido-1-(2,2-difluoroethyl)-4-methyl-1H-indazol-7-yl]-7-[2-(2-methylpropane-2-sulfonyl)phenyl]-4-oxo-3,4-dihydroquinazolin-2-yl}-2-(3,5-difluorophenyl)ethyl]-2-[(2S,4R)-9-(difluoromethyl)-5,5-difluoro-7,8-diazatricyclo[4.3.0.0^2,^4]nona-1(6),8-dien-7-yl]acetamide], in data set [1], the CC50 at 4 days was above 500 nM. Moreover, the EC50 in data set [2] is 0.38 nM.

Take `CC(C)(C)S(=O)(=O)c1ccccc1-c1ccc2c(=O)n(-c3ccc(Cl)c4c(NS(=O)(=O)C5CC5)nn(CC(F)F)c34)c([C@H](Cc3cc(F)cc(F)c3)NC(=O)Cn3nc(C(F)F)c4c3C(F)(F)[C@@H]3C[C@H]43)nc2c1` (atropisomer, axis not shown) [Example 143]: the CC50 at 4 days in data set [1] is above 500 nM. Besides, in data set [2], the EC50 came to 0.28 nM.

`CN(c1ccccc1-c1ccc2c(=O)n(-c3ccc(Cl)c4c(NS(=O)(=O)C5CC5)nn(CC(F)F)c34)c([C@H](Cc3cc(F)cc(F)c3)NC(=O)Cn3nc(C(F)F)c4c3C(F)(F)[C@@H]3C[C@H]43)nc2c1)S(C)(=O)=O` (atropisomer, axis not shown) [Example 144] yielded a CC50 at 4 days in data set [1] above 500 nM. In addition, in data set [2], the EC50 is 0.18 nM.

For `Cc1ccc(-n2c([C@H](Cc3cc(F)cc(F)c3)NC(=O)Cn3nc(C(F)F)c4c3C(F)(F)[C@@H]3C[C@H]43)nc3cc(-c4ccccc4N(C)S(C)(=O)=O)ccc3c2=O)c2c1c(NS(=O)(=O)C1CC1)nn2CC(F)F` (atropisomer, axis not shown) [Example 145, N-[(1S)-1-{3-[3-cyclopropanesulfonamido-1-(2,2-difluoroethyl)-4-methyl-1H-indazol-7-yl]-7-[2-(N-methylmethanesulfonamido)phenyl]-4-oxo-3,4-dihydroquinazolin-2-yl}-2-(3,5-difluorophenyl)ethyl]-2-[(2S,4R)-9-(difluoromethyl)-5,5-difluoro-7,8-diazatricyclo[4.3.0.0^2,^4]nona-1(6),8-dien-7-yl]acetamide], the CC50 at 4 days in data set [1] is above 500 nM. Further, the concentration for a half-maximal effect (EC50) in data set [2] turned out to be 0.68 nM.

In data set [1], `CN(c1ccc(-c2ccc3c(=O)n(-c4ccc(Cl)c5c(NS(=O)(=O)C6CC6)nn(CC(F)F)c45)c([C@H](Cc4cc(F)cc(F)c4)NC(=O)Cn4nc(C(F)F)c5c4C(F)(F)[C@@H]4C[C@H]54)nc3c2)cc1)S(C)(=O)=O` (atropisomer, axis not shown) [Example 147, N-[(1S)-1-{3-[4-chloro-3-cyclopropanesulfonamido-1-(2,2-difluoroethyl)-1H-indazol-7-yl]-7-[4-(N-methylmethanesulfonamido)phenyl]-4-oxo-3,4-dihydroquinazolin-2-yl}-2-(3,5-difluorophenyl)ethyl]-2-[(2S,4R)-9-(difluoromethyl)-5,5-difluoro-7,8-diazatricyclo[4.3.0.0^2,^4]nona-1(6),8-dien-7-yl]acetamide] showed a CC50 at 4 days above 500 nM. For the same compound, the EC50 in data set [2] worked out at 0.34 nM.

For `CN(c1cccc(-c2ccc3c(=O)n(-c4ccc(Cl)c5c(NS(=O)(=O)C6CC6)nn(CC(F)F)c45)c([C@H](Cc4cc(F)cc(F)c4)NC(=O)Cn4nc(C(F)F)c5c4C(F)(F)[C@@H]4C[C@H]54)nc3c2)c1)S(C)(=O)=O` (atropisomer, axis not shown) [Example 148, N-[(1S)-1-{3-[4-chloro-3-cyclopropanesulfonamido-1-(2,2-difluoroethyl)-1H-indazol-7-yl]-7-[3-(N-methylmethanesulfonamido)phenyl]-4-oxo-3,4-dihydroquinazolin-2-yl}-2-(3,5-difluorophenyl)ethyl]-2-[(2S,4R)-9-(difluoromethyl)-5,5-difluoro-7,8-diazatricyclo[4.3.0.0^2,^4]nona-1(6),8-dien-7-yl]acetamide], in data set [1], the half-maximal cytotoxic concentration (CC50) at 4 days is above 500 nM. In addition, the EC50 in data set [2] was found to be 0.28 nM.
